Reference: patent US9913916B2, “Asymmetric bifunctional silyl monomers and particles thereof as prodrugs and delivery vehicles for pharmaceutical, chemical and biological agents” (The University of North Carolina at Chapel Hill, priority 2010, dated 2018)

Format: physicochemical
Procedure: A model degradation of an ABS pro-drug of gemcitabine attached via a di-isopropyl silyl ether linkage (iPr-GEM) was conducted.
Asymmetric bifunctional silyl ether pro-drugs were synthesized and analyzed as potential materials for controlled drug delivery in nanoparticles. Using one-step synthesis, numerous pro-drugs from the chemotherapeutics camptothecin, dasatinib, and gemcitabine were prepared. These ABS pro-drugs were placed under acidic conditions, such as those found […], and subsequent to degradation of the reversible covalent linkage(s), the pro-drug reverted back to the original active form of the chemotherapeutic. […] The rate of release increased as the steric bulk of the substituent on the Si atom decreased; Rate of Release: Et-GEM>iPr-GEM>>tBu-GEM). […] These ABS pro-drugs can be incorporated into nanoparticles and medical devices capable of releasing drugs in a controlled and tunable fashion.

SMILES | degradation of silyl ether linkage on exposure to acid
C=CC(=O)OCCO[Si](CC)(CC)O[C@]1(CC)C(=O)OCc2c1cc1n(c2=O)Cc2cc3ccccc3nc2-1 [Et-CPT, Diethyl ABS of Camptothecin] | degraded to yield both unmodified camptothecin and HEA
C=CC(=O)OCCO[Si](OC[C@H]1O[C@@H](n2ccc(N)nc2=O)C(F)(F)[C@@H]1O)(C(C)C)C(C)C [iPr-GEM, Diisopropyl ABS of Gemcitabine] | acid sensitive and reverts back to the original starting materials
